Laboratory results as given in patent US9089576B2, “Medicament comprising a peptide extract of avocado, which is intended for the treatment and prevention of illnesses that are linked to an immune system deficiency or oxidative stress or skin ageing or dry skin” (LABORATOIRES EXPANSCIENCE, priority 2004, dated 2015).
Values joined by “and” are separate entries in the source; they are usually repeats but may differ in a detail not shown here. Identical values can stand only once. Like-named read-outs stand apart in the source and are kept apart here. Marks after values point to notes of the source that are not given here.

What was measured:
hBD-2 = test: Induction of hBD-2 in normal human keratinocytes (ELISA); format: cell-based; details: IL-1β 100 ng/ml, 24 hours
Method: Normal human keratinocytes are seeded in 96 well plates (about 20,000 cells/well), in the presence of a specific medium which is enriched in calcium (final concentration 1.3 mM), as formerly described in the publication “Human β-Defensin-2 production in Keratinocytes is regulated by Interleukin-1, Bacteria, and the State of Differentiation”, Alice Y. Liu et al., The Society for Investigative Dermatology, vol. 118, No 2, February 2002, pages 275-281.
After 24 hours incubation, the induction of hBD-2 is assessed with an ELISA technique using a specific antibody (goat polyclonal to human BD2; Abcam; ab9871).

hyaluronic acid = test: Hyaluronic acid synthesis/release by keratinocytes (ELISA); format: cell-based, human; details: 0.1 μM retinoic acid, 72 hours
Method: (§1) Normal human epidermal keratinocytes (NHEK) were pre-cultured for 24 hours at 37° C., 5% CO2 in calcium-depleted (0.09 mM) SFM medium [Invitrogen] supplemented with 0.25 ng/ml EGF [Invitrogen], 25 μg/ml pituitary extract [Invitrogen] and 25 μg/ml gentamycin [Sigma].
(§2) Two identical runs were prepared to assay, on one hand, hyaluronic acid release/production and, on the other, […] incorporation in the GAG fraction. The group corresponding to the GAG assay was supplemented with ^35S-sulphate [Amersham] after 48 hours of culture (labelling for the last 24 hours).
In the group corresponding to the hyaluronic acid assay, at the end of treatment, the culture supernatants were sampled and the hyaluronic acid assayed using a specific modified ELISA test [Biogenic].
(§3) The between-group comparisons were conducted by means of an analysis of variance using the Dunnett multiple comparison test.

[1] = test system: Normal human dermal fibroblasts (NHDF); test: NHDF proliferation (neutral red incorporation); format: cell-based; details: 1 μM retinoic acid; 48 hours; RPMI 1% FCS
Method: (§4) The cell proliferation was evaluated using a neutral red incorporation tests. This test is based on the ability of living cells to incorporate and fix neutral red, a supravital staining agent. Therefore, the staining activity intensity (optical density measurement of cell lysates) reflects the quantity of living cells.
(§5) Normal human epidermal keratinocytes (NHEK), supplied by Cambrex, were cultured in KGM2 culture medium [Cambrex]. Normal human dermal fibroblasts (NHDF), supplied by Cambrex, were cultured in RPMI 1640 medium with GlutaMAX I [Invitrogen] supplemented with 1% or 10% fetal calf serum [FCS, Invitrogen].
(§6) The cells were inoculated in 96-well plates in KGM2 medium for the NHEK and in RPMI medium with 1% FCS for the NHDF.
(§7) (positive reference) in KGM2 medium for the NHEK or in RPMI medium with 1% FCS for the NHDF.
An additional condition was conducted for the NHDF: treatment with complete medium (RPMI with 10% FCS: optimal conditions for NHDF proliferation).
(§8) At the end of treatment, the quantity of cells per well was evaluated by means of a neutral red incorporation test:
(§9) After 3 hours in contact with neutral red, the cells were rinsed and lysed and the optical density proportional to the quantity of living cells was read at 540 nm against the blank (well with no cells).

[2] = test system: SPRL6A (epidermal differentiation complex protein like protein); test: DNA array gene expression, Skinethic reconstructed epidermises: SPRL6A; format: cell-based; details: 1 μM retinoic acid
S100 A9 = test: DNA array gene expression, Skinethic reconstructed epidermises: S100 A9; format: cell-based; details: 1 μM retinoic acid
S100 A7 = test: DNA array gene expression, Skinethic reconstructed epidermises: S100 A7; format: cell-based; details: 1 μM retinoic acid
Thioredoxin = details: 1 μM retinoic acid
Method: The gene expression analysis conducted using standard simplified DNA arrays. These mini-chips were produced on a Nylon substrate, spotting specific cDNA of the markers of interest.
The analysis was conducted using proprietary optimised miniaturised technology, based on the use of messenger RNA and ^33P labelling:
At the end of each culture time, the epidermises were rinsed with a PBS solution. The total RNA in the epidermises was then extracted and purified using Tri-Reagent [Sigma] according to a standardised protocol. The quantity and quality of the RNA were then evaluated using an Agilent 2001 bioanalyser.
The mRNA from each culture was then reverse transcribed using oligodT and a deoxyribonucleotide triphosphate labelled with ^33P. Multiple cDNA ‘target’ labelled sequences were produced for each culture. These targets were then hybridised, under optimised conditions, with the excess ‘probe’ cDNA fixed on the membranes. After washing, the relative quantity of labelled target was detected by means of direct counting on PhosphorImager.
The membrane analysis was conducted using ImageQuant TL software [Image Analysis, Amersham Biosciences].

NICE-1 protein = test: DNA array gene expression, Skinethic reconstructed epidermises: NICE-1; format: cell-based; details: 1 μM retinoic acid
[3] = test system: Normal human epidermal keratinocytes (NHEK); test: NHEK proliferation (neutral red incorporation); format: cell-based; details: 1 μM retinoic acid; 48 hours
Method: as §4, §5, §6, §7, §8, §9

[4] = test system: Glycosaminoglycan (GAG) synthesis; test: GAG synthesis by keratinocytes (35S-sulphate incorporation); format: cell-based, human; details: 72 hours
Method: as §1, §2
At the end of the treatment, in the group corresponding to the GAG assay, the incorporated radioactivity was counted and thus the variation in GAG synthesis with respect to the analysed control.
as §3

[5] = test system: Lysyl oxidase like 2 (LOXL2); test: DNA array gene expression, Skinethic reconstructed epidermises: LOXL2; format: cell-based; details: 1 μM retinoic acid
Elafin = test: DNA array gene expression, Skinethic reconstructed epidermises: Elafin; format: cell-based; details: 1 μM retinoic acid
S100 A8 = test: DNA array gene expression, Skinethic reconstructed epidermises: S100 A8; format: cell-based; details: 1 μM retinoic acid
Heme oxygenase 1 = test: DNA array gene expression, Skinethic reconstructed epidermises: Heme oxygenase 1; format: cell-based; details: 1 μM retinoic acid
Desmosglein 1 = test: DNA array gene expression, Skinethic reconstructed epidermises: Desmosglein 1; format: cell-based; details: 1 μM retinoic acid
[6] = test system: Rat peritoneal mast cells; test: Tryptase release by mast cells stimulated with calcium ionophore A23187; format: cell-based; details: Ca ionophore + 50 μM Quercetin
Method: (reference tryptase release inhibitory molecule).
The cells were then stimulated for 15 minutes by 0.5 μM calcium ionophore A23187 [Millipore] to induce the release of tryptase.
The reaction was stopped by means of centrifugation at 4° C. The tryptase was assayed in the pellets and in the supernatants by means of a commercial kit [Millipore] based on the spectrophotometric detection of the chromophore p-nitroaniline (pNA) after cleavage of the substrate tosyl-gly-pro-lys-pNA by tryptase.

oxidised proteins = test: Oxidised proteins content in replication-aged fibroblast model (INCell Analyzer analysis); format: cell-based, human; details: P16 fibroblasts; 150 μM BHA; 72 hours
Method: The study was conducted on normal human dermal fibroblasts at passage 8 (P8, control conditions) and brought to senescence using two separate methods: • accelerated ageing by means of successive replications: fibroblasts at passage 16 (P16), • accelerated ageing by means of H2O2.
The fibroblasts were cultured in DMEM medium [Invitrogen] supplemented with 2 mM L-glutamine [Invitrogen] and 10% Fetal Calf Serum [FCS, Invitrogen].
After incubation, the cells were rinsed and fixed with methanol. The fluorescein-5-thiosemicarbazide probe (20 μM) [Invitrogen] was added for 30 minutes at ambient temperature and, in parallel, the cell nuclei were stained with Hoechst [Sigma]. The image acquisition was performed using the INCell Analyzer™ 1000 unit [GE Healthcare], with the ×20 lens.

[7] = test system: Jurkat cell line (human lymphoid cells); test: Anti-radical activity: intracellular lipid peroxides after H2O2 (C11-fluorine probe, flow cytometry); format: cell-based; details: 100 μM BHA; 10 μM H2O2, 30 minutes
Method: The relative lipid peroxide content inside the cells was measured in the basal state and following hydrogen peroxide treatment (H2O2, radical species production stimulation).
This measurement was made using a specific fluorescent probe selected and quantified by means of flow cytometry. This technique offers the advantage of very high specificity by measuring the fluorescence of individual cells, on a large number of cells (10,000 cells analysed per sample).
The cells were prepared in phenol red-free DMEM medium [Merck] with 1.87 mg/ml sodium bicarbonate [Invitrogen] according to the following conditions: • cells treated with H2O2 with the C11-fluorine probe (to quantify lipid peroxides); • cells not treated with H2O2 with C11-fluorine probe.
The probe was incorporated in the cells and the cells were then washed and incubated in the presence or not (standard) of 0.05%, 0.1%, 0.2% and 1% DM avocado peptides or 100 μM BHA (Butylated hydroxyanisole) [Sigma] […]
In the presence of hydrogen peroxide, the C11-fluorine probe integrated in the membranes is oxidised and its fluorescence decreases. Therefore, a decrease in the fluorescence signal conveys an increase in the membrane lipid peroxide content (and conversely).
The between-group comparisons were conducted using the Student's test and the protection percentage (P) was calculated as follows:

MMP1 = test: Gene expression of MMP1 in PMA-stimulated fibroblasts (real-time RT-PCR); format: cell-based, human; details: 1 mg/ml TGF b1 pre-treatment 16 hours, then 10 nM PMA 2 hours
Method: After 16 hours of incubation, the fibroblasts were stimulated for 2 hours with 10 nM PMA (Phorbol Myristate Acetate) [Sigma] in RPMI medium without FCS.
For the study of the expression of MMP1, the inhibition percentage was calculated as follows: […]

Collagen I = test: Gene expression of Collagen I in fibroblasts (real-time RT-PCR); format: cell-based, human; details: 24 hours
Method: (§10) The cells were then incubated at 37° C., 5% CO2 for 24 hours for the collagen I and elastin study or 48 hours for the LOX and LOXL study.

Elastin = test: Gene expression of Elastin in fibroblasts (real-time RT-PCR); format: cell-based, human; details: 24 hours
Method: as §10

Compound: IL-1β: interleukin-1β, positive induction checking for hBD-2
- hBD-2 (OD), Average (hBD-2): 0.106 OD
- hBD-2 (OD) (hBD-2; single replicates): 0.103 OD and 0.11 OD and 0.105 OD

Compound: CC1=C(/C=C/C(C)=C/C=C/C(C)=C/C(=O)O)C(C)(C)CCC1 [retinoic acid]
- Hyaluronic acid synthesis/release, % vs control cells (hyaluronic acid): +146%
- Hyaluronic acid synthesis/release, HA (hyaluronic acid; culture supernatant): 11500 ± 457 ng/mL
- NHDF proliferation, % vs control cells [1]: +20%
- NHDF proliferation, Neutral Red (OD 540) [1]: 0.1923 ± 0.00765 OD 540
- % variation with respect to reference: SPRL6A ([2]; 6 hours): −41%
- % variation with respect to reference: SPRL6A ([2]; 24 hours): +202%
- % variation with respect to reference: S100 A9 (S100 A9; 6 hours): +83%
- % variation with respect to reference: S100 A9 (S100 A9; 24 hours): +552%
- % variation with respect to reference: S100 A7 (S100 A7; 6 hours): +118%
- % variation with respect to reference: S100 A7 (S100 A7; 24 hours): +3240%
- % variation with respect to reference: Thioredoxin (Thioredoxin; 6 hours): −26%
- % variation with respect to reference: Thioredoxin (Thioredoxin; 24 hours): +126%
- % variation with respect to reference: NICE-1 protein (NICE-1 protein; 6 hours): −3%
- % variation with respect to reference: NICE-1 protein (NICE-1 protein; 24 hours): +217%
- NHEK proliferation, % vs control cells [3]: +36%
- NHEK proliferation, Neutral Red (OD 540) [3]: 0.6981 ± 0.1627 OD 540
- GAG synthesis, 35-5 sulphate incorporation (cpm) ([4]; 0.1 μM retinoic acid): 13217 ± 421 cpm
- % variation with respect to reference: Lysyl oxidase like 2 (LOXL2) ([5]; 6 hours): −16%
- % variation with respect to reference: Lysyl oxidase like 2 (LOXL2) ([5]; 24 hours): −16%
- % variation with respect to reference: Elafin (Elafin; 6 hours): +13%
- % variation with respect to reference: Elafin (Elafin; 24 hours): −22%
- % variation with respect to reference: S100 A8 (S100 A8; 6 hours): +34%
- % variation with respect to reference: S100 A8 (S100 A8; 24 hours): +1347%
- % variation with respect to reference: Heme oxygenase 1 (Heme oxygenase 1; 6 hours): −17%
- % variation with respect to reference: Heme oxygenase 1 (Heme oxygenase 1; 24 hours): +108%
- % variation with respect to reference: Desmosglein 1 (Desmosglein 1; 6 hours): −40%
- % variation with respect to reference: Desmosglein 1 (Desmosglein 1; 24 hours): −95%

Compound: [Ca+2] [Calcium, calcium]
- GAG synthesis, 35-5 sulphate incorporation (cpm) ([4]; 1.5 mM calcium): 17753 ± 876 cpm
- GAG synthesis, % vs control cells ([4]; 1.5 mM calcium): +59%

Compound: O=c1c(O)c(-c2ccc(O)c(O)c2)oc2cc(O)cc(O)c12 [Quercetin]
- Tryptase [6]: 44 ± 2 mg/mL
- tryptase release, Inhibition (% vs stimulated cells) [6]: −47%

Compound: COc1ccc(O)c(C(C)(C)C)c1 [BHA, Butylated hydroxyanisole]
- Oxidised proteins (cytoplasmic fluorescence intensity/number of cells) (oxidised proteins): 105 314*
- Oxidised proteins, % vs “senescent cells” (P16) (oxidised proteins): −57%
- Protection % [7]: 50%
- Relative intracellular quantity of lipid peroxides, % of “oxidised cell” standard [7]: 89** %

Compound: TGF b1: TGFβ1 [R&D Systems], positive control / reference
- Gene expression of MMP1, Inhibition (% vs stimulated cells) (MMP1): −66 $$ %
- Gene expression of MMP1, Relative quantity standardised with YWHA2 (MMP1): 0.61
- Gene expression of MMP1, Inhibition (% vs stimulated cells) (MMP1; listed as TGFβ1): −66%
- Gene expression of Collagen I, Relative quantity standardised with HPRT (Collagen I; 5 mg/ml TGF b1): 1.74*
- increase in gene expression of type I collagen (Collagen I; TGFβ1 positive control): 74%
- Gene expression of Elastin, Relative quantity standardised with HPRT (Elastin; 5 mg/ml TGF b1): 1.59
- increase in gene expression of elastin (Elastin; TGFβ1 positive control): 59%
